In US20220249590A1, “EFFICACY OF GARLIC THERAPY IN CONTROLLING INFLAMMATORY CYTOKINES AND CARTILAGE DEGRADATION IN KNEE OSTEOARTHRITIS AND IMPROVING QUALITY OF LIFE” (priority 2021, published 2022):

Legend:
[1] = tested on: knee osteoarthritis patients; test: Study II: garlic versus glucosamine sulphate, clinical manifestations; assay type: in vivo, human
Method: In the second study, I had compared the effect of garlic versus glucosamine on cartilage degeneration in knee osteoarthritis patients. I have chosen glucosamine sulfate to be the comparing drug due to its well known chondroprotective properties and it has been in the market for a while to control the symptoms of knee osteoarthritis.
(§1) Garlic group receive 900 mg of garlic capsules daily for 8 weeks. The glucosamine group received 1500 mg glucosamine sulfate daily for 8 weeks. As regard baseline affection of knee in both groups. The garlic group has bilateral knee OA in 100% of patients and significant knee deformity compared to glucosamine group who were having only Bilateral knee affection in 70% of patients.

[2] = tested on: MMP13; test: Study II: level of MMP13; assay type: in vivo, human; conditions: garlic capsules 900 mg daily or glucosamine sulfate 1500 mg daily, 8 weeks; no difference between the groups
Method: as §1

[3] = tested on: collagenase; test: Study II: level of collagenase; assay type: in vivo, human; conditions: garlic capsules 900 mg daily or glucosamine sulfate 1500 mg daily, 8 weeks; no difference between the groups
Method: as §1

[4] = tested on: glutathione peroxidase; test: Study II: level of glutathione peroxidase; assay type: in vivo, human; conditions: garlic capsules 900 mg daily or glucosamine sulfate 1500 mg daily, 8 weeks; no difference between the groups
Method: as §1

[5] = tested on: mice knee osteoarthritis; conditions: after intake of diet rich in selenium; cited from earlier work
[6] = tested on: glutathione peroxidase; conditions: mice, after intake of diet rich in selenium; cited from earlier work
[7] = tested on: adjuvant arthritis; conditions: adjuvant arthritis in rats; cited from earlier work
[8] = tested on: lupus mice; conditions: cited from earlier work
[9] = tested on: rheumatoid arthritis patients; conditions: selenium intake; cited from earlier work

| Compound | body mass index, mean percent change ([1]; end of study, glucosamine group vs garlic group) | pain score ([1]; garlic capsules 900 mg daily or glucosamine sulfate 1500 mg daily, 8 weeks) | body mass index ([1]; garlic capsules 900 mg daily or glucosamine sulfate 1500 mg daily, 8 weeks, end of study vs baseline) | level of MMP13 [2] | level of collagenase [3] | level of glutathione peroxidase [4] | mice knee osteoarthritis [5] | expression of glutathione peroxidase in synovium [6] | indices of inflammation [7] | indices of inflammation [8] | pain, swollen and tender joints numbers [9] |
| --- | --- | --- | --- | --- | --- | --- | --- | --- | --- | --- | --- |
| N[C@H]1C(O)O[C@H](CO)[C@@H](O)[C@@H]1O.O=S(=O)(O)O (some centres unmarked) [glucosamine sulfate] | higher mean percent change than garlic group | significantly improved in both groups with no difference between groups | did not significantly change | significant reduction | significant reduction | significant reduction | – | – | – | – | – |
| [Se] [selenium] | – | – | – | – | – | – | significant reduction | increased expression | improved indices of inflammation | improved indices of inflammation | reduction |
